One series concerns MCF7-Ras. Description: Tumor growth of ex vivo pre-treated MCF7-Ras injected subcutaneously. The class given is in vivo, NSG mice. The note with it: ex vivo treatment before injection. As for the experimental part:
All animal experiments were approved by the Agency for Science Technology and Research Singapore-Biological Resource Centre IACUC (Protocol number 140940). For pre-treated SUM159 and MCF7-Ras cells, 1×10^6 cells were suspended in 100 μl media containing 50% matrigel and injected subcutaneously into both flanks of female NSG mice. The NSG mice were checked for tumor by palpation once a week and tumors were harvested when they reached ˜15 mm in diameter. For treatment in NSG mice, 1×10^5 NAMEC8-Ras cells were suspended in 100 μl media containing 50% matrigel and injected subcutaneously into both flanks of NSG mice. The NSG mice were checked for tumor formation by palpation and when tumors were about 3 mm, mice were randomized into two groups: vehicle (5% DMSO in corn oil) and treatment (Bexarotene, 100 mg/kg/day oral dosing). Tumor size was measured every week using Vernier calipers and mice were sacrificed when tumors reached ˜15 mm or after ˜4 weeks of treatment. For patient-derived cells, 2×10^6 cells were injected subcutaneously per site in NSG mice.

The subject of series [1] is BC2.2, BC22.1, BC29.1, MetBR 007-DR. Description: EMT and lineage markers in patient-derived triple-negative breast cancer cell lines. The class given is cell-based, human. The note with it: patient-derived TNBC cell lines. The method, then:
(§1) Breast tissue biopsies from cancer patients were obtained from National Cancer Centre Singapore (NCCS) with patients' consent and under an IRB approved protocol (2015/2976). Tissue was digested with 1 mg/ml collagenase IV (Gibco) and 1 mg/ml dispase II (Thermo Fisher Scientific) in F12 media for 2 h while shaking in a 37° C. incubator. Cell suspension was then put through a cell strainer and centrifuged for 10 min at 1500 rpm. Cells were then washed twice and resuspended in media before seeding on irradiated 3T3 feeders as previously described. When confluent, sub-culturing was carried out by first lifting the feeders using 0.15% trypsin for 2 min. […]
(§2) Cells were rinsed twice in ice-cold PBS. Total RNA was extracted using Trizol (Invitrogen) and column-purified with RNeasy kits (Qiagen). cDNA synthesis was performed with 500 ng of total RNA at 37° C. for 2 h using the SuperScript III First-Strand Synthesis System (Thermo Fisher Scientific), and subsequently diluted 5-fold. mRNA levels were measured with gene-specific primers listed below using the ABI Prism 7900HT Sequence Detection System 2.2 (Applied Biosystems). Results were normalized to GAPDH and analyzed using SDS 2.2 software.
(§3) Cells were harvested and scraped from culture dishes in ice-cold PBS. […] Protein concentrations were determined using Coomaisse Blue. […]

Series [2] relates to SERPINE1prom-Luc reporter in NAMEC8 cells. In words: Dual-Glo luciferase assay of SERPINE1prom-Luc reporter (FF/Ren). The class given is cell-based, human. The settings on record: Homo sapiens, 72 h, primary screen; NAMEC8-SERPINE1prom-Luc cells grown 3 days with compound; relative to DMSO; read-out: Avr FF/Renilla from DMSO. From the text: pGreenFire1-mCMV was cut using ClaI and SpeI and gel purified. Promoter sequences of genes Zeb1, Serpine1, CDH1, CD24, CD44, CD166 were amplified from human genomic DNA with pre-designed primers containing ClaI and SpeI restriction cut sites using AccuPrime Taq DNA Polymerase (Thermo Fisher Scientific). PCR products were then digested with restriction enzymes and gel-purified. Vector was ligated with PCR insert using Quick Ligase (Fermentas) and transformed into Stb12 competent cells. Colonies were picked and inoculated into TB media with ampicillin. Plasmids were then isolated using a plasmid miniprep kit (Qiagen) and sent for sequencing (1 stBASE Laboratories). After verifying the plasmid sequence, transfection into HEK293 cells was carried out to generate lentivirus. Transfection was carried out using FuGENE 6 (Promega). Viral supernatant was harvested at 24 h and 48 h. NAMEC8 cells were then infected twice with virus using polybrene ([…]) and checked for good transduction efficiency using Dual-Glo Luciferase System (Promega).
Stock plates of compound libraries were kindly prepared by GIS CHiP facility at 1 mM concentration in DMSO. NAMEC8-SERPINE1prom-Luc cells were seeded into 384 well plates at a density of 700 cells/well in a total volume of 50 μl, using an automated dispensing system (BioTek). 0.5 μl of compounds were then added to the wells the following day using a robotic pin transfer with a Bravo workstation (Agilent Technologies). Cells were then grown for 3 days and promoter-luciferase activity was measured using the Dual-Glo Luciferase System (Promega).
Assay was carried out according to manufacturer's instructions. To measure luciferase activity in 384 well plates, media was first removed from the plate. Firefly luciferase activity was determined by adding 30 μl Dual-Glo Luciferase substrate (Promega) to the wells and incubated for 10 min before measuring luminescence using a TECAN M1000 Pro plate reader. 15 μl Dual-Glo Stop & Glo substrate was then added to the wells, incubated for 10 min and measuring luminescence on the plate reader to determine Renilla luciferase activity. Promoter luciferase activity is then calculated by taking Firefly luciferase over Renilla luciferase.

The test system of a further series is BC24.1 and BC33.1. In words: EMT and lineage markers in patient-derived ER+, luminal-like tumor cell lines. The class given is cell-based, human. As for the experimental part:
as §1, §2, §3

Series [3] has as its system NAMEC8 and SUM159, BC2.2 and BC22.1. In words: In vitro measurement of IC50 of 5-FU/PAC in bexarotene-treated cells. The class given is cell-based, human. The settings on record: bexarotene-treated vs DMSO cells. From the text: Data were normalized to vehicle controls.
The subject of the next series is NAMEC8. In words: Expression of EMT and lineage markers (qRT-PCR, immunoblot, immunofluorescence) in NAMEC8. The class given is cell-based, human. In short, it runs like this: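 qRT-PCR on Trizol/RNeasy RNA (500 ng into cDNA, 37 °C 2 h), normalized to GAPDH. Immunoblots used 50-80 μg RIPA lysate on 4-12% Bis-Tris gels with ECL detection. Immunofluorescence was on paraformaldehyde-fixed, Triton-permeabilized cells with Alexa Fluor-488/-594 secondaries and DAPI, imaged by epifluorescence at 100-200×.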
(In qPCR the cycle at which signal appears reflects the starting amount.)

“Also recorded” adds a separate entry of the source.

As for `C=C(c1ccc(C(=O)O)cc1)c1cc2c(cc1C)C(C)(C)CCC2(C)C` [Bexarotene], the tumor cell growth entry with MCF7-Ras is reported as “no impact on the tumor cell growth was observed”. Moreover, the “expression of EMT and lineage markers” value in series [1] is recorded as “increased the expression of E-cadherin, while reducing SLUG expression, to varying extents”. Moreover, in series [2], the activity at 10 µM is 31%. Besides, in the series on BC24.1 and BC33.1, the “expression of epithelial/mesenchymal or luminal/basal markers” value is recorded as “no dramatic change in the expression of the epithelial/mesenchymal or luminal/basal markers”. The “conferred susceptibility to 5-FU or paclitaxel” value in series [3] is listed as 4-6 folds. For the same compound, the “MET phenotype: induction and durability after drug withdrawal” value with NAMEC8 (drugs removed for at least seven days) was “gradually reverted to a more mesenchymal cell phenotype; also recorded: could cause an MET”. In addition, the “expression of EMT and basal/luminal markers” value in the series on NAMEC8 (transcript and protein) was “downregulation of mesenchymal signature markers (ZEB1, SERPINE1, FN1, SLUG) and the concomitant gain of epithelial marker CDH1”.

The values above are taken from patent US12667546B2, “Methods for manipulating cell state transitions in cancer” (AGENCY FOR SCIENCE, TECHNOLOGY AND RESEARCH, priority 2018, dated 2026).
